Measured values: patent publication US4161595A, “Levulinic acid salt” (Bristol-Myers Company, priority 1978, dated 1979)
≈ marks a conversion by molar mass, not a printed value. Where a name gives a salt, the structure may show the parent alone.

How the values were obtained:
[1] = In situ solubility of acid addition salts of BL-5111 in water; assay type: physicochemical; conditions: for Solubility 50° C. / Solubility 25° C.: 10 mg. BL-5111 free base in 0.3 ml. water with excess of the acid; for Solubility 25° C.: room temperature (about 25° C.)
[2] = Comparative water stability of 1:1 and 1:1.3 levulinate salts; assay type: physicochemical
[3] = Comparative water solubility of 1:1 and 1:1.3 levulinate salts; assay type: physicochemical
[4] = Plasma levels in dogs after oral administration by gavage; assay type: in vivo; conditions: equivalent to 10 mg. BL-5111 free base, fasted beagle dogs
Method: With respect to oral administration, the BL-5111 levulinate provides improved absorption compared to the hydrochloride salt as illustrated by enhanced plasma levels in dogs. Thus, BL-5111 levulinate (equivalent to 10 mg. of BL-5111 free base) was orally administered by gavage as a solution in 5 ml. of water followed by 20 ml. of water to beagle dogs which had been fasted 12 to 15 hours. The BL-5111 hydrochloride (equivalent to 10 mg. of the BL-5111 free base) was likewise administered with the exception that a suspension was employed due to tendency of the hydrochloride to dissolve at a rate appreciably slower than the levulinate. […] Moreover, maximum plasma level following administration was approximately three-fold greater for the levulinate than the hydrochloride while the extent of absorption of BL-5111 levulinate (determined by comparison of the area under plasma concentration-time curves taken over a period of 24 hr.) was more than double that of BL-5111 hydrochloride.

[5] = Comparative quantitative solubility study in water and methylene chloride; assay type: physicochemical; conditions: 25° C.; for Solubility in Methylene Chloride: measure of lipid solubility
Source text: In comparison to the hydrochloride salt of BL-5111, the 1:1.3 levulinate salt form has substantially greater water and lipid solubility. TABLE 3 below sets forth results of a comparative quantitative study of the BL-5111 hydrochloride and the 1:1.3 levulinate salt in water and methylene chloride. Solubility in methylene chloride is a measure of lipid solubility which plays an important role in any distribution in the body.

| SMILES | Solubility 50° C. [1] | Solubility 25° C. [1] | also measured |
| --- | --- | --- | --- |
| COc1cc2nc(N3CCN(C(=O)c4nnc(SC)o4)CC3)nc(N)c2cc1OC [acetic] | + (soluble (+)) | + (soluble (+)) | Solubility ([1]; room temperature, 10 mg./0.3 ml. water, read-out: Solubility sufficient to provide a solution): ≥ 33 mg/mL |
| COc1cc2nc(N3CCN(C(=O)c4nnc(SC)o4)CC3)nc(N)c2cc1OC [1:1, levulinic acid salt of 4-amino-6,7-dimethoxy-2-[4-(5-methylthio-1,3,4-oxadiazole-2-carbonyl)-piperazin-1-yl]quinazoline] |  |  | Solubility and stability relative to the 1:1.3 levulinate ([2]; water, Table 2 data): relatively less soluble and stable; Solubility ([3]; 2.5 mg./ml., at 50° C.): soluble; Solubility ([3]; 10 mg./ml., at 50° C.): soluble; Solubility ([3]; 50 mg./ml., at 80° C.): insoluble |
| COc1cc2nc(N3CCN(C(=O)c4nnc(SC)o4)CC3)nc(N)c2cc1OC [isethionic] | - (insoluble (-)) | - (insoluble (-)) |  |
| COc1cc2nc(N3CCN(C(=O)c4nnc(SC)o4)CC3)nc(N)c2cc1OC [methanesulfonic] | - (insoluble (-)) | - (insoluble (-)) |  |
| COc1cc2nc(N3CCN(C(=O)c4nnc(SC)o4)CC3)nc(N)c2cc1OC [1:1.3 levulinate, 4-AMINO-6,7-DIMETHOXY-2-[4-(5-METHYLTHIO-1,3,4-OXADIAZOLE-2-CARBONYL)-PIPERAZIN-1-YL]QUINAZOLINE LEVULINATE] |  |  | Maximum plasma level relative to the hydrochloride [4]: approximately three-fold; Extent of absorption (area under plasma concentration-time curves) relative to BL-5111 hydrochloride ([4]; over 24 hr.): more than double; Solubility in Water [5]: 38.0 mg/mL (≈ 88.1 mM); Water solubility, times that of the hydrochloride salt [5]: about 8.6 times; Solubility in Methylene Chloride [5]: > 100 mg/mL; Stability of aqueous solution ([2]; room temperature): stable; Stability ([2]; water, 10 mg./ml., room temperature, listed as 1:1.3): stable; Stability ([2]; water, 50 mg./ml., room temperature): stable; Solubility ([3]; 10 mg./ml., room temperature): soluble; Solubility ([3]; 50 mg./ml., at 50° C.): soluble |
| COc1cc2nc(N3CCN(C(=O)c4nnc(SC)o4)CC3)nc(N)c2cc1OC [formic] | + (soluble (+)) | ± (questionable (±)) |  |
| COc1cc2nc(N3CCN(C(=O)c4nnc(SC)o4)CC3)nc(N)c2cc1OC [succinic] | + (soluble (+)) | - (insoluble (-)) |  |
| COc1cc2nc(N3CCN(C(=O)c4nnc(SC)o4)CC3)nc(N)c2cc1OC [nitric] | - (insoluble (-)) | - (insoluble (-)) |  |
| COc1cc2nc(N3CCN(C(=O)c4nnc(SC)o4)CC3)nc(N)c2cc1OC [hydrobromic] | - (insoluble (-)) | - (insoluble (-)) |  |
| COc1cc2nc(N3CCN(C(=O)c4nnc(SC)o4)CC3)nc(N)c2cc1OC [phosphoric] | - (insoluble (-)) | - (insoluble (-)) |  |
| COc1cc2nc(N3CCN(C(=O)c4nnc(SC)o4)CC3)nc(N)c2cc1OC [fumaric] | - (insoluble (-)) | - (insoluble (-)) |  |
| COc1cc2nc(N3CCN(C(=O)c4nnc(SC)o4)CC3)nc(N)c2cc1OC [sulfuric] | - (insoluble (-)) | - (insoluble (-)) |  |
| COc1cc2nc(N3CCN(C(=O)c4nnc(SC)o4)CC3)nc(N)c2cc1OC [hydrochloride] |  |  | Time at which maximum plasma levels reached ([4]; levulinate as solution, hydrochloride as suspension, listed as BL-5111 hydrochloride): 2 h; Solubility in Water [5]: 4.42 mg/mL; Solubility in Methylene Chloride [5]: < 1 mg/mL; Solubility 50° C. ([1]; listed as hydrochloric): - (insoluble (-)); Solubility 25° C. ([1]; listed as hydrochloric): - (insoluble (-)) |
